Measurements as given in PMC9569995, “Study of Biological Activities and ADMET-Related Properties of Salicylanilide-Based Peptidomimetics” (International Journal of Molecular Sciences, 2022).
In brackets after ≈: the same amount, converted by molar mass. Where two headings read alike, the source gives them in different places.

Experiments:
[1] = tested on: vancomycin-resistant E. faecalis VRE 368; test: In vitro antibacterial evaluation, MIC by microtitration broth method; settings: Enterococcus faecalis
[2] = tested on: Staphylococcus aureus ATCC 29213; test: Determination of minimum bactericidal concentrations (agar aliquot subculture); settings: ATCC29213
[3] = tested on: Enterococcus faecalis ATCC 29212; test: In vitro antibacterial evaluation, MIC by microtitration broth method
[4] = tested on: methicillin-resistant S. aureus SA 3202; test: as above; settings: Staphylococcus aureus
[5] = tested on: methicillin-resistant S. aureus 63718; test: Determination of minimum bactericidal concentrations (agar aliquot subculture); settings: Staphylococcus aureus
[6] = tested on: vancomycin-resistant E. faecalis VRE 342B; test: In vitro antibacterial evaluation, MIC by microtitration broth method; settings: Enterococcus faecalis
[7] = tested on: methicillin-resistant S. aureus SA 630; test: as above; settings: Staphylococcus aureus
[8] = tested on: methicillin-resistant S. aureus SA 630; test: Determination of minimum bactericidal concentrations (agar aliquot subculture); settings: Staphylococcus aureus
[9] = tested on: Staphylococcus aureus ATCC 29213; test: In vitro antibacterial evaluation, MIC by microtitration broth method
[10] = tested on: human monocytic leukemia cell line THP-1; test: In vitro cell viability analysis (CCK-8); type: cell-based; settings: ± SD, n = 6, medium with 10% FBS, 24 h
Method: Human monocytic leukemia THP-1 cells obtained from the European Collection of Cell Cultures (ECACC, Salisbury, UK) were used for in vitro antiproliferative assays. They were routinely cultured in Roswell Park Memorial Institute RPMI 1640 medium supplemented with 10% fetal bovine serum (FBS), 2% L-glutamine, 1% penicillin, and streptomycin (all from Sigma-Aldrich) at 37 °C with 5% CO2. The cells were incubated in a complete medium (i.e., containing FBS) with test compounds at 37 °C with 5% CO2 for 24 h, similarly as we described previously. The effect of the test compounds dissolved in DMSO on cell viability was determined using a Cell Counting Kit-8 (CCK-8; Sigma) according to the manufacturer’s instructions.

M. smegmatis ATCC 700084 = test: In vitro antimycobacterial evaluation, MIC (broth dilution micro-method); type: cell-based, Mycobacterium smegmatis; settings: Mycolicibacterium smegmatis
Method: For M. smegmatis, the broth dilution micro-method in Middlebrook 7H9 medium (Difco) supplemented with ADC Enrichment (Difco) was used. […] Bacterial inocula were prepared by transferring colonies from culture to sterile water. The cell density was adjusted to 0.5 McFarland units using a densitometer (Densi-La-Meter, LIAP, Riga, Latvia). The final inoculum was made by 1:1000 dilution of the suspension with sterile water. Drug-free controls, sterility controls, and controls consisting of medium and DMSO alone were included. The determination of results was performed visually after three days of static incubation in the darkness at 37 °C in an aerobic atmosphere.

[11] = tested on: methicillin-resistant S. aureus SA 3202; test: Determination of minimum bactericidal concentrations (agar aliquot subculture); settings: Staphylococcus aureus
[12] = tested on: Mycobacterium tuberculosis H37Ra/ATCC 25177; test: In vitro antimycobacterial evaluation, MIC (alamarBlue); settings: MT
[13] = tested on: methicillin-resistant S. aureus 63718; test: In vitro antibacterial evaluation, MIC by microtitration broth method; settings: Staphylococcus aureus
[14] = Lipophilicity determination by HPLC; type: physicochemical; settings: for log D6.5: HPLC C18, MeOH 72%/acetate-buffered saline pH 6.5 28%; for log D7.4: HPLC C18, MeOH 72%/acetate-buffered saline pH 7.4 28%; for log k: logarithm of capacity factor, HPLC C18, MeOH 72%/H2O 28%
Text: . A chromatographic column Symmetry® C18 5 μm, 4.6 × 250 mm, Part No. W21751W016 (Waters Corp, Milford, MA, USA) was used. The HPLC separation process was monitored by ChemStation for LC 3D systems (Agilent Technologies). Isocratic elution by a mixture of MeOH (HPLC grade, 72%) and H2O-HPLC Mili-Q grade (28%) as a mobile phase was used for the determination of capacity factor k. Isocratic elution by a mixture of MeOH (HPLC grade, 72%) and acetate-buffered saline (pH 7.4 and pH 6.5) (28%) as a mobile phase was used for the determination of distribution coefficient expressed as D7.4 and D6.5. The total flow of the column was 1.0 mL/min, injection was 20 μL, column temperature was 40 °C, and sample temperature was 10 °C. The detection wavelength of 210 nm was chosen. A KI methanolic solution was used for the determination of the dead times (tD). Retention times (tR) were measured in minutes. The capacity factors k were calculated according to the formula k = (tR − tD)/tD, where tR is the retention time of the solute, and tD is the dead time obtained using an unretained analyte. The distribution coefficients DpH were calculated according to the formula DpH = (tR − tD)/tD. Each experiment was repeated three times.

[15] = tested on: vancomycin-resistant E. faecalis VRE 725B; test: In vitro antibacterial evaluation, MIC by microtitration broth method; settings: Enterococcus faecalis
S. aureus ATCC 29123 = test: Crystal violet uptake (membrane permeability); settings: 4× MIC, 1 h; compared to growth control and 1% Tween 20
S. aureus ATCC 29213 = test: MTT assay of bacterial viability (respiration); settings: for Conc.: lowest multiple of MBC with at least 70% inhibition of S. aureus viability / Conc.: lowest multiple of MIC with at least 70% inhibition of S. aureus viability: MTT, 24 h
[16] = ATCC700084, 72 h, MS, three days, 37 °C, read-out: MIC

Compound	MIC ([1]; 24 h)	MBC [2] [µM]	MIC ([3]; ATCC29212, 24 h)	MIC ([4]; 24 h)	MBC [5] [µM]	MIC ([6]; 24 h)	MIC ([7]; 24 h)	MBC [8] [µM]	MIC ([9]; ATCC29213, 24 h)	IC50 [10] [µM]	MIC (M. smegmatis ATCC 700084; [16]) [µg/mL]	MBC [11] [µM]	MIC ([12]; 14 days, 37 °C)	MIC ([13]; 24 h)	log D6.5 [14]	log D7.4 [14]	log k [14]	MIC ([15]; 24 h)	other results
CCCC[C@H](NC(=O)c1cc(Cl)ccc1O)C(=O)Nc1ccc(C(F)(F)F)cc1 [3d, 5-Chloro-2-hydroxy-N-[(2S)-1-oxo-1-{[4-(trifluoromethyl)phenyl]amino}hexan-2-yl]benzamide]	> 256 µg/mL	1.17 (≈ 0.502 µg/mL)	> 256 µg/mL	2.33 µM	4.66 (≈ 2 µg/mL)	> 256 µg/mL	2.33 µM	4.66 (≈ 2 µg/mL)	0.583 µM	4.5 ± 1.2	> 256	2.33 (≈ 0.999 µg/mL)	n.a. n.d. (n.a. = no activity (MIC > 256 µg/mL))	4.66 µM	1.247	1.213	1.322	> 256 µg/mL	
O=C(N[C@@H](CC1CCCCC1)C(=O)Nc1ccc(C(F)(F)F)cc1)c1cc(Cl)ccc1O [3g, 5-Chloro-N-[(2S)-3-cyclohexyl-1-oxo-1-{[4-(trifluoromethyl)phenyl]amino}propan-2-yl]-2-hydroxybenzamide]	546 µM	1.07 (≈ 0.502 µg/mL)	546 µM	1.07 µM	2.13 (≈ 0.999 µg/mL)	546 µM	1.07 µM	2.13 (≈ 0.999 µg/mL)	1.07 µM	1.4 ± 1.1	> 256	1.07 (≈ 0.502 µg/mL)	n.a. n.d. (n.a. = no activity (MIC > 256 µg/mL))	2.13 µM	1.615	1.576	1.679	546 µM	effect on plasma membrane permeability (crystal violet uptake) (S. aureus ATCC 29123): did not affect plasma membrane permeability; Conc.: lowest multiple of MBC with at least 70% inhibition of S. aureus viability (S. aureus ATCC 29213): 0.5× MIC (0.5× MBC); Conc.: lowest multiple of MIC with at least 70% inhibition of S. aureus viability (S. aureus ATCC 29213): 0.5× MIC (0.5× MBC); S. aureus Viability Inhibition (S. aureus ATCC 29213; at 0.5× MIC (0.5× MBC)): 95.2%; viability of bacterial cells (S. aureus ATCC 29213; at their MIC value or below): less than 70%; averaged lipophilicity value of log k/log D6.5/log D7.4 ([14]; average of the three experimental descriptors): 1.62 ± 0.05
O=C(N[C@@H](Cc1ccccc1)C(=O)Nc1ccc(C(F)(F)F)cc1)c1cc(Cl)ccc1O [3h]	277 µM	2.16 (≈ 1 µg/mL)	277 µM	2.16 µM	0.27 (≈ 0.125 µg/mL)	277 µM	1.08 µM	2.16 (≈ 1 µg/mL)	1.08 µM	3.3 ± 1	> 256	2.16 (≈ 1 µg/mL)	n.a. n.d. (n.a. = no activity (MIC > 256 µg/mL))	0.27 µM	1.148	1.043	1.192	277 µM	effect on plasma membrane permeability (crystal violet uptake) (S. aureus ATCC 29123): did not affect plasma membrane permeability; Conc.: lowest multiple of MBC with at least 70% inhibition of S. aureus viability (S. aureus ATCC 29213): 2× MIC (2× MBC); Conc.: lowest multiple of MIC with at least 70% inhibition of S. aureus viability (S. aureus ATCC 29213): 2× MIC (2× MBC); S. aureus Viability Inhibition (S. aureus ATCC 29213; at 2× MIC (2× MBC)): 94%
CC(C)C[C@H](NC(=O)[C@H](Cc1ccccc1)NC(=O)c1cc(Cl)ccc1OCc1ccccc1)C(=O)Nc1ccc(C(F)(F)F)cc1 [5b]										> 10					1.994	2.027	2.049		MIC [1]: > 256 µg/mL; MIC ([3]; ATCC29212): > 256 µg/mL; MIC [4]: > 256 µg/mL; MIC [6]: > 256 µg/mL; MIC [7]: > 256 µg/mL; MIC ([9]; ATCC29213): > 256 µg/mL; MIC (M. smegmatis ATCC 700084; ATCC700084): > 256 µg/mL; MIC ([12]; Table S2): > 256 µg/mL; MIC [13]: > 256 µg/mL; MIC [15]: > 256 µg/mL
O=C(N[C@@H](Cc1ccccc1)C(=O)N[C@@H](Cc1ccccc1)C(=O)Nc1ccc(C(F)(F)F)cc1)c1cc(Cl)ccc1OCc1ccccc1 [5c]										> 10					2.062	2.096	2.119		MIC [1]: > 256 µg/mL; MIC ([3]; ATCC29212): > 256 µg/mL; MIC [4]: > 256 µg/mL; MIC [6]: > 256 µg/mL; MIC [7]: > 256 µg/mL; MIC ([9]; ATCC29213): > 256 µg/mL; MIC (M. smegmatis ATCC 700084; ATCC700084): > 256 µg/mL; MIC ([12]; Table S2): > 256 µg/mL; MIC [13]: > 256 µg/mL; MIC [15]: > 256 µg/mL
CC(C)C[C@H](NC(=O)c1cc(Cl)ccc1O)C(=O)N[C@@H](Cc1ccccc1)C(=O)Nc1ccc(C(F)(F)F)cc1 [6a]	> 256 µg/mL		> 256 µg/mL	444 µM		> 256 µg/mL	444 µM		222 µM	2.2 ± 1.1	> 256		n.a. n.d. (n.a. = no activity (MIC > 256 µg/mL))	444 µM	1.510	1.493	1.560	> 256 µg/mL	
CC(C)C[C@H](NC(=O)[C@H](Cc1ccccc1)NC(=O)c1cc(Cl)ccc1O)C(=O)Nc1ccc(C(F)(F)F)cc1 [6b]	> 256 µg/mL	112 (≈ 64.5 µg/mL)	> 256 µg/mL	55.6 µM		> 256 µg/mL	55.6 µM	444 (≈ 256 µg/mL)	55.6 µM	1.6 ± 1	> 256		n.a. n.d. (n.a. = no activity (MIC > 256 µg/mL))	444 µM	1.528	1.453	1.547	> 256 µg/mL	
O=C(N[C@@H](Cc1ccccc1)C(=O)N[C@@H](Cc1ccccc1)C(=O)Nc1ccc(C(F)(F)F)cc1)c1cc(Cl)ccc1O [6c]	> 256 µg/mL		> 256 µg/mL	> 256 µg/mL		> 256 µg/mL	> 256 µg/mL		> 256 µg/mL	1.3 ± 1.1	> 256		n.a. n.d. (n.a. = no activity (MIC > 256 µg/mL))	> 256 µg/mL	1.548	1.495	1.587	> 256 µg/mL	
